20 molecules from patent publication US8012983B2, “Substituted triazolopyrazines useful for the treatment of degenerative and inflammatory diseases” (Galapagos NV, priority 2008, dated 2011) can be followed below.

This test relates to MMP1 expression by activated synovial fibroblasts (RASFs). Description: 'MMP assay': complex trigger-induced MMP1 expression by synovial fibroblasts (MMP1 ELISA). In kind it is cell-based. The conditions noted are these: Homo sapiens, Fibroblast; RASFs, complex trigger, 48 hrs; read-out: MMP1 IC50. As to the method:
A 384-well format ELISA for measurement of MMP1 is developed. Various primary antibodies are tested, as well as various ELISA protocols. The following protocol is developed and validated to measure MMP1 levels in SF supernatant in 384 well plates: white Lumitrac 600 384 well plates (Greiner) are coated with 2 μg/mL anti-MMP1 antibody MAB1346 (Chemicon). The antibody is diluted in buffer 40 (1.21 g Tris base (Sigma), 0.58 g NaCl (Calbiochem) and 5 ml 10% NaN3 (Sigma) in 1 L milliQ water and adjusted to pH 8.5). After overnight incubation at 4° C., plates are washed with PBS (80 g NaCl, 2 g KCl (Sigma), 11.5 g Na2HPO4.7H2O and 2 g KH2PO4 in 10 L milliQ; pH 7.4) and blocked with 100 μL/well Casein buffer (2% Casein (VWR International) in PBS). Next day, casein buffer is removed from ELISA plates and replaced by 50 μL/well EC buffer (4 g casein, 2.13 g Na2HPO4 (Sigma), 2 g bovine albumin (Sigma), 0.69 g NaH2PO4.H2O (Sigma), 0.5 g CHAPS (Roche), 23.3 g NaCl, 4 ml 0,5 M EDTA pH 8 (Invitrogen), 5 ml 10% NaN3 in 1 L milliQ and adjusted to pH 7.0). 0.25 mM DTT (Sigma) is added to the thawed samples plates. After removal of the EC buffer, 20 μL of sample is transferred to the ELISA plates. After overnight incubation at 4° C. plates are washed twice with PBS and once with PBST (PBS with 0.05% Tween-20 (Sigma)) and incubated with 35 μL/well biotinylated anti-MMP1 antibody solution (R&D). This secondary antibody is diluted in buffer C (0.82 g NaH2PO4.H2O, 4.82 g Na2HPO4, 46.6 g NaCl, 20 g bovine albumin and 4 mL 0,5M EDTA pH 8 in 2 L milliQ and adjusted to pH 7.0) at a concentration of 5 μg/mL. After 2 h of incubation at RT, plates are washed as described above and incubated with 50 μL/well streptavidin-HRP conjugate (Biosource). Streptavidin-HRP conjugate is diluted in buffer C at a concentration of 0.25 μg/mL. After 45 min, plates are washed as described above and incubated for 5 min with 50 μL/well BM Chem ELISA Substrate (Roche). Readout is performed on the Luminoscan Ascent Luminometer (Labsystems) with an integration time of 200 msec or with an Envision reader (Perkin Elmer).
The increase of MMP1 expression by SFs upon treatment with cytokines relevant in the field of RA (TNF-α, IL1β and OSM) or a combination thereof is shown in FIG. 2 as white bars. For this experiment, SFs are seeded in 96 well plates, 3,000 cells/well. 24 h later, the medium is changed to M199 medium supplemented with 1% FBS. One day after the medium change, cytokines or combinations thereof are added to the cultures, each cytokine being added to a final concentration of 25 ng/mL. 72 h after cytokine addition, the supernatant is collected and processed in the MMP1 ELISA as described in the protocol given above. In parallel with this experiment, SFs are triggered, using the same protocol, with the supernatant of THP1 cells (2-fold diluted in M199+1% FBS) treated with the same cytokines or combinations of cytokines for 48 h in M199 medium+1% FBS. The induction of the MMP1 expression by SFs triggered with the supernatants of TNF-α-treated THP1 cells is stronger (>4.5 fold induction) as compared to the SFs triggered with recombinant TNF-α alone (3-fold induction) and almost equals the 5-fold induction obtained by a mixture of 3 purified cytokines (TNF-α, IL1βb, OSM). […] As the role of TNF-α in the RA pathogenesis is validated (TNF-α-blockers such as Infliximab and Etanercept show some efficacy in the treatment of RA patients) and the THP-1 cells are representative for monocytes/macrophages present in the joint of RA patients, the TNF-α-based trigger mixture prepared by contacting THP-1 cells with TNF-α will contain factors present in the joints of RA patients and subsequently is relevant to RA. This TNF-α-based complex trigger, further referred to as the ‘complex trigger’, will further be used as basis for the ‘MMP assay’. […]
Broadly, the IC50 is the concentration that inhibits the measured activity by half. `CC(C)N1C[C@@H]2C[C@H]1CN2c1ccc(Nc2ncc(-c3coc(C(N)=O)c3)n3ccnc23)cc1` [Compound 4, 4-{8-[4-((1S,4S)-5-Isopropyl-2,5-diaza-bicyclo[2.2.1]hept-2-yl)-phenylamino]-imidazo[1,2-a]pyrazin-5-yl}-furan-2-carboxamide]: the IC50 is over 1000 nM.

As for `CC(C)N1C[C@@H]2C[C@H]1CN2c1cccc(Nc2ncc(-c3coc(C(N)=O)c3)n3ccnc23)c1` [Compound 25, 4-(8-(3-((1S,4S)-5-isopropyl-2,5-diazabicyclo[2.2.1]heptan-2-yl)phenylamino)imidazo[1,2-a]pyrazin-5-yl)furan-2-carboxamide], the IC50 is over 1000 nM.

With `CC(C)N1C[C@@H]2C[C@H]1CN2c1cccc(Nc2ncc(-c3coc(C(N)=O)c3)n3ncnc23)c1` [Compound 24, 4-(8-(3-((1S,4S)-5-isopropyl-2,5-diazabicyclo[2.2.1]heptan-2-yl)phenylamino)-[1,2,4]triazolo[1,5-a]pyrazin-5-yl)furan-2-carboxamide], the IC50 is over 1000 nM.

Turning to `CC(C)N1C[C@@H]2C[C@H]1CN2c1ccc(Nc2ncc(-c3cc(C(N)=O)n[nH]3)n3ncnc23)cc1` [Compound 5, 5-{8-(4-((1S,4S)-5-isopropyl-2,5-diazabicyclo[2.2.1]heptan-2-yl)phenyl-amino)-[1,2,4]triazolo[1,5-a]pyrazin-5-yl}-1H-pyrazole-3-carboxamide], the IC50 lay in the range of 1 to 1000 nM.

Consider `CC(C)(C)N1C[C@@H]2C[C@H]1CN2c1ccc(Nc2ncc(-c3cc(C(N)=O)n[nH]3)n3ncnc23)cc1` [Compound 17, 5-{8-(4-((1S,4S)-5-tert-butyl-2,5-diazabicyclo[2.2.1]heptan-2-yl)phenyl-amino)-[1,2,4]triazolo[1,5-a]pyrazin-5-yl}-1H-pyrazole-3-carboxylic acid amide], for which the IC50 is over 1000 nM.

With `CC(C)N1C[C@@H]2C[C@H]1CN2c1ccc(Nc2ncc(-c3ccc4c(c3)CNC4=O)n3ncnc23)cn1` [Compound 18, 5-{8-(6-((1S,4S)-5-isopropyl-2,5-diazabicyclo[2.2.1]heptan-2-yl)pyridin-3-ylamino)-[1,2,4]triazolo[1,5-a]pyrazin-5-yl}-2,3-dihydro-isoindol-1-one], the IC50 was over 1000 nM.

In the case of `CCOc1cc(-c2cnc(Nc3ccc(N4C[C@@H]5C[C@H]4CN5C(C)C)cc3)c3nccn23)ccn1` [Compound 22, 5-(2-ethoxypyridin-4-yl)-N-(4-((1S,4S)-5-isopropyl-2,5-diazabicyclo[2.2.1]heptan-2-yl)phenyl)imidazo[1,2-a]pyrazin-8-amine], the IC50 is over 1000 nM.

In the case of `CCOC(=O)c1cc(-c2cnc(Nc3ccc(N4C[C@@H]5C[C@H]4CN5C(C)C)cc3)c3ncnn23)[nH]n1` [Compound 21, Ethyl 5-(8-(4-((1S,4S)-5-isopropyl-2,5-diazabicyclo[2.2.1]heptan-2-yl)phenylamino)-[1,2,4]triazolo[1,5-a]pyrazin-5-yl)-1H-pyrazole-3-carboxylate], the IC50 was over 1000 nM.

Turning to `CC(C)N1CC2CCC(C1)N2c1ccc(Nc2ncc(-c3coc(C(N)=O)c3)n3ccnc23)cc1` [Compound 11, 4-{8-(4-(3-isopropyl-3,8-diazabicyclo[3.2.1]octan-8-yl)phenylamino)-imidazo[1,2-a]pyrazin-5-yl}-furan-2-carboxamide], the IC50 is over 1000 nM.

Turning to `CC(C)N1C[C@@H]2C[C@H]1CN2c1ccc(Nc2ncc(-c3noc(C(N)=O)n3)n3ncnc23)cc1` [Compound 23, 3-(8-(4-((1S,4S)-5-isopropyl-2,5-diazabicyclo[2.2.1]heptan-2-yl)phenylamino)-[1,2,4]triazolo[1,5-a]pyrazin-5-yl)-1,2,4-oxadiazole-5-carboxamide], the IC50 was over 1000 nM.

In the case of `CC(C)N1C2CCC1CN(c1ccc(Nc3ncc(-c4coc(C(N)=O)c4)n4ncnc34)cc1)C2` [Compound 12, 4-{8-(4-(8-isopropyl-3,8-diazabicyclo[3.2.1]octan-3-yl)phenylamino)[1,2,4]-triazolo[1,5-a]pyrazin-5-yl}-furan-2-carboxamide], the IC50 was over 1000 nM.

`CC(C)N1C[C@@H]2C[C@H]1CN2c1ccc(Nc2ncc(-c3cc[nH]c(=O)c3)n3ccnc23)cc1` [Compound 8, 4-{8-(4-((1S,4S)-5-isopropyl-2,5-diazabicyclo[2.2.1]heptan-2-yl)phenyl-amino)imidazo[1,2-a]pyrazin-5-yl}-1H-pyridin-2-one]: the IC50 is 1 to 1000 nM.

As for `CC(C)(C)N1C[C@@H]2C[C@H]1CN2c1ccc(Nc2ncc(-c3ccc4c(c3)CNC4=O)n3ncnc23)cc1` [Compound 16, 5-{8-(4-((1S,4S)-5-tert-butyl-2,5-diazabicyclo[2.2.1]heptan-2-yl)phenylamino)-[1,2,4]triazolo-[1,5-a]pyrazin-5-yl}-2,3-dihydro-isoindol-1-one], the IC50 is over 1000 nM.

`CC(C)N1C[C@@H]2C[C@H]1CN2c1ccc(Nc2ncc(-c3cc[nH]c(=O)c3)n3ncnc23)cc1` [Compound 20, 4-(8-(4-((1S,4S)-5-isopropyl-2,5-diazabicyclo[2.2.1]heptan-2-yl)phenylamino)-[1,2,4]triazolo[1,5-a]pyrazin-5-yl)pyridin-2(1H)-one]: the IC50 is over 1000 nM.

Regarding `CC(C)N1C[C@@H]2C[C@H]1CN2c1ccc(Nc2ncc(-c3cc(C(N)=O)n[nH]3)n3ncnc23)cn1` [Compound 15, 5-{8-(6-((1S,4S)-5-isopropyl-2,5-diazabicyclo[2.2.1]heptan-2-yl)pyridin-3-ylamino)-[1,2,4]triazolo[1,5-a]pyrazin-5-yl}-1H-pyrazole-3-carboxylic acid amide], the IC50 was over 1000 nM.

For `CC(C)N1CC2CCC1CN2c1ccc(Nc2ncc(-c3coc(C(N)=O)c3)n3ncnc23)cc1` (centres unmarked) [Compound 9, 4-{8-(4-(5-isopropyl-2,5-diazabicyclo[2.2.2]octan-2-yl)phenylamino)[1,2,4]-triazolo[1,5-a]pyrazin-5-yl}-furan-2-carboxamide], the IC50 is 1 to 1000 nM.

As to `CC(C)(C)N1C[C@@H]2C[C@H]1CN2c1ccc(Nc2ncc(-c3coc(C(N)=O)c3)n3ncnc23)cc1` [Compound 3, 4-{8-[4-((1S,4S)-5-tert-Butyl-2,5-diaza-bicyclo[2.2.1]hept-2-yl)-phenylamino]-[1,2,4]triazolo[1,5-a]pyrazin-5-yl}-furan-2-carboxamide], the IC50 was over 1000 nM.

`CC(C)(C)N1C[C@@H]2C[C@H]1CN2c1ccc(Nc2ncc(-c3coc(C(N)=O)c3)n3ccnc23)cc1` [Compound 6]: the IC50 is over 1000 nM.

For the molecule `CCOc1cc(-c2cnc(Nc3ccc(N4C[C@@H]5C[C@H]4CN5C(C)C)cc3)c3ncnn23)ccn1` [Compound 19, 5-(2-ethoxypyridin-4-yl)-N-(4-((1S,4S)-5-isopropyl-2,5-diazabicyclo[2.2.1]heptan-2-yl)phenyl)-[1,2,4]triazolo[1,5-a]pyrazin-8-amine], the 50% inhibitory concentration (IC50) is over 1000 nM.

In the case of `CC(C)N1C[C@@H]2C[C@H]1CN2c1cccc(Nc2ncc(-c3ccc4c(c3)CNC4=O)n3ncnc23)c1` [Compound 26, 5-(8-(3-((1S,4S)-5-isopropyl-2,5-diazabicyclo[2.2.1]heptan-2-yl)phenylamino)-[1,2,4]triazolo[1,5-a]pyrazin-5-yl)isoindolin-1-one], the IC50 was over 1000 nM.
